Test results as given in patent US8293786B2 (Alltranz Inc., priority 2007, dated 2012).

Key:
human abdominal skin = assay: In vitro human skin permeation and skin disposition, flow-through diffusion cells (Examples 2, 2A, 2B); assay type: in vitro ADME; details: for Flux enhancement: total cannabidiol versus cannabidiol
Method in brief: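 Dermatomed (~200 μm) frozen human abdominal skin was mounted in flow-through cells at 32° C (0.95 cm^2), stratum corneum to donor. Donors were 0.10 mL 45:4:1 PG:H2O:IPM solution or 50 μL gel; receiver was 40% PEG 400 (HEPES-Hanks pH 7.4 or aqueous) with gentamicin at 0.8 mL/h. Samples were taken every 3 h for 24-42 h; skin accumulation was expressed as μmol/g wet tissue.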

[1] = Plasma stability of cannabidiol prodrugs (bioconversion to parent drug); assay type: in vitro ADME; details: Table 20, di-prodrug in plasma; for % mono-prodrug at time (h): mono-prodrug formed
Protocol: An approximated 1 mg/mL stock solution of each prodrug was prepared in 100 μL of ethanol and 900 μL of acetonitrile. Ten (10) μL of stock was spiked into 1 mL of plasma and vortexed. The samples were kept sealed in an amber vial and samples were obtained to analyze for bioconversion to parent drug.

[2] = Table 18, 90:8:2 PG:H2O:IPM donor solution, 40% aqueous PEG 400 receiver fluid, CBD from applied prodrug
[3] = Table 18, 90:8:2 PG:H2O:IPM donor solution, 40% aqueous PEG 400 receiver fluid, mono-prodrug from applied di-prodrug
[4] = Table 18, 90:8:2 PG:H2O:IPM donor solution, 40% aqueous PEG 400 receiver fluid, prodrug applied, as total cannabidiol equivalents
[5] = Table 19, gel formulation, 40% aqueous PEG 400 receiver fluid, as applied compound (CBD or intact prodrug)
[6] = Table 19, gel formulation, 40% aqueous PEG 400 receiver fluid, mono-prodrug (ALL00150) from applied di-prodrug
[7] = Table 19, gel formulation, 40% aqueous PEG 400 receiver fluid, prodrug applied, as total cannabidiol equivalents
[8] = Table 16, 90:8:2 PG:H2O:IPM donor solution, 60/40 Hanks'/PEG 400 receiver fluid, as applied compound (CBD or intact prodrug)
[9] = Table 17, 90:8:2 PG:H2O:IPM donor solution, 40% aqueous PEG 400 receiver fluid, as applied compound (CBD or intact prodrug)
[10] = Table 18, 90:8:2 PG:H2O:IPM donor solution, 40% aqueous PEG 400 receiver fluid, as applied compound (CBD or intact prodrug)
[11] = Table 21, gel formulation, 40% aqueous PEG 400 receiver fluid, as applied compound (CBD or intact prodrug)
[12] = Table 23, gel formulation, 40% aqueous PEG 400 receiver fluid, as applied compound (CBD or intact prodrug)

C=C(C)C1CCC(C)=CC1c1c(OC(=O)CN(C)C)cc(CCCCC)cc1OC(=O)CN(C)C (centres unmarked) [ALL00105, CBD bis(N,N-dimethylglycinate)]
30 h cumulative amt (human abdominal skin; [2]): 6.9 ± 0.0 nmol | 30 h skin conc (human abdominal skin; [2]): 30.0 ± 0.0 µmol/g | Flux (human abdominal skin; [2]): 0.6 ± 0.0 nmol/cm^2/h | Lag time (human abdominal skin; [2]): 18.6 ± 0.0 h | 30 h cumulative amt (human abdominal skin; [3]): 15.4 ± 0.0 nmol | 30 h skin conc (human abdominal skin; [3]): 40.2 ± 0.0 µmol/g | Flux (human abdominal skin; [3]): 1.0 ± 0.0 nmol/cm^2/h | Lag time (human abdominal skin; [3]): 13.0 ± 0.0 h | 30 h cumulative amt (human abdominal skin; [4]): 22.3 ± 0.0 nmol | 30 h skin conc (human abdominal skin; [4]): 70.2 ± 0.0 µmol/g | Flux (human abdominal skin; [4]): 1.6 ± 0.0 nmol/cm^2/h | Lag time (human abdominal skin; [4]): 15.2 ± 0.0 h | Flux enhancement (human abdominal skin; Table 18, 90:8:2 PG:H2O:IPM donor solution, 40% aqueous PEG 400 receiver fluid): 0.19 | detected in the skin as (human abdominal skin; in donor solution): mono-substituted prodrug, ALL00148, and cannabidiol | flux compared to cannabidiol (human abdominal skin; in donor solution): did not increase the flux | lag time compared to cannabidiol (human abdominal skin; in donor solution): not decreased | permeated through the skin as (human abdominal skin; in donor solution): mono-substituted prodrug (ALL00148) and cannabidiol | total skin concentrations compared to cannabidiol (human abdominal skin; in donor solution): higher | % mono-prodrug at time (h) ([1]; 2 h): 0% | % mono-prodrug at time (h) ([1]; 4 h): 0% | % mono-prodrug at time (h) ([1]; 22 h): 0% | % mono-prodrug at time (h) ([1]; 24 h): 0% | % Di-prodrug at time (h) ([1]; 0 h): 100% | % Di-prodrug at time (h) ([1]; 2 h): 92% | % Di-prodrug at time (h) ([1]; 4 h): 88% | % Di-prodrug at time (h) ([1]; 22 h): 58% | % Di-prodrug at time (h) ([1]; 24 h): 55%

C=C(C)[C@@H]1CCC(C)=C[C@H]1c1c(OC(=O)CCN(C)C)cc(CCCCC)cc1OC(=O)CCN(C)C [ALL00101, CBD bis(3-(dimethylamino)propionate)]
24 h skin conc (human abdominal skin; Table 19, gel formulation, 40% aqueous PEG 400 receiver fluid, CBD from applied prodrug): 13.2 ± 10.4 µmol/g | 24 h skin conc (human abdominal skin; [5]): 0.8 ± 0.6 µmol/g | 24 h cumulative amt (human abdominal skin; [6]): 8.4 ± 1.3 nmol | 24 h skin conc (human abdominal skin; [6]): 34.7 ± 27.7 µmol/g | Flux (human abdominal skin; [6]): 0.4 ± 0.03 nmol/cm^2/h | Lag time (human abdominal skin; [6]): 2.9 ± 1.9 h | 24 h cumulative amt (human abdominal skin; [7]): 8.4 ± 1.3 nmol | 24 h skin conc (human abdominal skin; [7]): 48.7 ± 38.6 µmol/g | Flux (human abdominal skin; [7]): 0.4 ± 0.03 nmol/cm^2/h | Lag time (human abdominal skin; [7]): 2.9 ± 1.9 h | Flux enhancement (human abdominal skin; Table 19, gel formulation, 40% aqueous PEG 400 receiver fluid): 0.52 | detected in the skin as (human abdominal skin; in gel formulation): trace small amounts of intact prodrug but mostly as mono-substituted prodrug, ALL00150, and cannabidiol | flux compared to cannabidiol (human abdominal skin; in gel formulation): did not increase the flux | lag time compared to cannabidiol (human abdominal skin; in gel formulation): decreased | permeated through the skin as (human abdominal skin; in gel formulation): mono-substituted prodrug (ALL00150) only | total skin concentrations compared to cannabidiol (human abdominal skin; in gel formulation): higher | % mono-prodrug at time (h) ([1]; 1 h): 22% | % mono-prodrug at time (h) ([1]; 20 h): 11% | % Di-prodrug at time (h) ([1]; 0 h): 100% | % Di-prodrug at time (h) ([1]; 1 h): 75% | % Di-prodrug at time (h) ([1]; 20 h): 1%

C=C(C)[C@@H]1CCC(C)=C[C@H]1c1c(O)cc(CCCCC)cc1O [cannabidiol, reference compound]
42 h cumulative amt (human abdominal skin; [8]): 154.4 ± 39.5 nmol | 42 h skin conc (human abdominal skin; [8]): 19.0 ± 12.8 µmol/g | Flux (human abdominal skin; [8]): 6.5 ± 0.7 nmol/cm^2/h | 30 h cumulative amt (human abdominal skin; [9]): 51.6 ± 9.1 nmol | 30 h skin conc (human abdominal skin; [9]): 10.5 ± 6.5 µmol/g | Flux (human abdominal skin; [9]): 3.9 ± 0.2 nmol/cm^2/h | 30 h cumulative amt (human abdominal skin; [10]): 148.6 ± 54.0 nmol | 30 h skin conc (human abdominal skin; [10]): 21.2 ± 4.8 µmol/g | Flux (human abdominal skin; [10]): 8.2 ± 2.6 nmol/cm^2/h | 24 h cumulative amt (human abdominal skin; [5]): 12.3 ± 8.1 nmol | 24 h skin conc (human abdominal skin; [5]): 9.0 ± 2.2 µmol/g | Flux (human abdominal skin; [5]): 0.8 ± 0.4 nmol/cm^2/h | Lag time (human abdominal skin; [5]): 8.5 ± 2.1 h | 24 h cumulative amt (human abdominal skin; [11]): 6.5 ± 3.8 nmol | 24 h skin conc (human abdominal skin; [11]): 15.6 ± 4.2 µmol/g | Flux (human abdominal skin; [11]): 0.4 ± 0.2 nmol/cm^2/h | Lag time (human abdominal skin; [11]): 5.3 ± 1.7 h | 24 h skin conc (human abdominal skin; Table 22, anhydrous gel formulation, 40% aqueous PEG 400 receiver fluid, as applied compound (CBD or intact prodrug)): 3.3 ± 1.3 µmol/g | 24 h cumulative amt (human abdominal skin; [12]): 3.0 nmol | 24 h skin conc (human abdominal skin; [12]): 27.7 ± 24.6 µmol/g | Flux (human abdominal skin; [12]): 0.29 nmol/cm^2/h | Lag time (human abdominal skin; [12]): 12.8 h | concentrations in the skin, anhydrous gel formulation compared to the ethanol based gel formulation (human abdominal skin; anhydrous gel versus ethanol based gel): much lower
